According to patent US20250222028A1, “ENGINEERED IMMUNE CELL PLATFORM” (Cancer Research Technology Limited, priority 2022, published 2025):

Legend:
Gli1 [1] = assay: Gli1 expression by qRT-PCR in anti-CD3ε-stimulated murine CD8+ CTLs; type: cell-based; settings: anti-CD3ε restimulation 6 hours
Method: (§1) FIG. 1. L-type Cav channel agonists increase Gli1 expression and enhance specific cell killing by murine CD8+ CTLs. CD8^+ T cells were isolated from the spleen and inguinal lymph nodes of Rag2^−/− OT-I mice, and CTLs were generated. (A) Cells were restimulated on day 9/10 for 3 hours using plate-bound anti-CD3ε in the presence of indicated concentrations of FPL 64176 or carrier control. RNA was extracted and Gli1 expression was assessed by qRT-PCR. Data is n=3 independent experiments. us=unstimulated cells. (B) An LDH cytotoxicity assay was performed using OT-I CTLs. On day 7, CTLs were co-cultured with Ova peptide-pulsed EL-4 cells in the presence of 10 μM FPL 64176 (squares) or carrier control (circles). Data is n=4 independent experiments. (C) Updated experiment of (A). Data is now n=4 independent experiments. Data is normalised to Tbp as a reference gene. 0h=unstimulated cells. (D) Same data as (B) represented differently. […] Error bars indicate SD. p values were calculated using an unpaired two-tailed Student's t test (C) or a two-way ANOVA (B/D). * indicates p<0.05, ** indicates p<0.01, **** indicates p<0.0001.
FIG. 2. FPL 64176 but not (R)-Baclofen nor Nefiracetam enhance Gli1 expression in murine CD8+ CTLs. Naïve CD8^+ T cells were isolated from the spleens of OT-I Rag2^−/− mice and CTLs were generated. Cells were restimulated using an anti-CD3ε mAb in the presence indicated concentrations of (A) FPL 64176, (B) (R)-Baclofen or (C) Nefiracetam (or carrier control). CTLs were pre-incubated with the relevant pharmacological agents for 40-50 mins prior to stimulation (ensuring sufficient time for the agents, e.g., FPL 64176, to enter the cell. Gli1 expression was assessed by qRT-PCR. Data is n=2 independent experiments. Error bars indicate SD.
To investigate a potential role for L-type Cav channel agonists in modulating CD8+ CTL activation and effector function, CD8+ T cells were isolated from the spleen and inguinal lymph nodes of Rag2−/− OT-I mice and CTLs were generated. […] OT-I mice bear a transgene encoding for a TCR that recognises a chicken ovalbumin (Ova) peptide fragment. Rag2−/− OT-I mice facilitate the isolation of naïve CD8+ T cell populations. Plates were coated using 2.5 μg/mL anti-CD3ε mAb and CD8+ CTLs were stimulated for 3 hours via the TCR in the presence of 5 or 10 μM FPL 64176, an L-type Cav channel agonist, or carrier control. Note that CD8+ CTLs were pre-incubated with FPL 64176 or carrier control for 40-50 mins before stimulation. Gli1 expression was assessed using qRT-PCR.
In brief, naïve CD8+ T cells were isolated from the spleen and inguinal lymph nodes of C57BL/6 wildtype mice and CTLs were generated. […] RNA was extracted from cells and Gli1 expression was assessed by qRT-PCR. […]

EL-4 tumour cells = assay: LDH cytotoxicity assay, OT-I CD8+ CTLs co-cultured with Ova peptide-pulsed EL-4 target cells; type: cell-based, murine; settings: 1.25 mM BAPTA, LDH assay 3 h
Method: as §1
FIG. 11. […] (A) Quantitative analysis of live cell numbers. […] (E) Quantitative analysis of live cell numbers. […]
To ensure that the use of L-type Cav agonist is not adversely affecting immune cells, general cell functions were assessed. […]

GLI1 [2] = assay: GLI1 expression by qRT-PCR in NK-92 cells; type: cell-based, human; settings: stimulated with anti-NKp46 mAb 4 hours, 100 μM, vs carrier control
Method: FIG. 5. L-type Cav channel agonists increase GLI1 expression in the human NK cell line NK-92 and promote specific tumour cell killing. (A) NK-92 cells were stimulated using an anti-NKp46 mAb for 4 hours in the presence of 10 μM FPL 64176, and GLI1 expression was assessed using qRT-PCR. Data is n=4 independent experiments. (B) NK-92 cells were stimulated using an anti-NKp46 mAb for 4 hours in the presence of 100 μM Bay K8644, and GLI1 expression was assessed using qRT-PCR. Data is n=3 independent experiments. (C) An LDH assay was performed to assess specific cell killing of K562 target cells at indicated effector to target ratios in the presence of 10 μM FPL 64176 (right-hand columns) or carrier control (left-hand columns). Error bars indicate SD. Data is from n=3 independent experiments.
To investigate whether L-type Cav channel agonists are also capable of enhancing GLI1 mRNA levels in the human NK cell line NK-92 (a non-Hodgkin's lymphoma cell line, expressing only Cav1.3), NK-92 cells were stimulated using an anti-NKp46 mAb (5 μg/mL) for 4 hours in the presence of either 10 μM FPL 64176 or 100 μM Bay K8644. For reference, Bay K8644 is a structural analogue of nifedipine, and acts as an L-type Cav channel agonist. GLI1 expression was assessed using qRT-PCR. […] These observations confirm that the GLI1-inducing effect of Cav agonists is not merely restricted to the compound FPL 64176. In particular, in NK cells.

## NC[C@H](CC(=O)O)c1ccc(Cl)cc1 [(R)-Baclofen]
Gli1 [1]; indicated concentrations, vs carrier control (FIG. 2)
  Gli1 expression following TCR activation: little effect

## O=C(O)CN(CC(=O)O)c1ccccc1OCCOc1ccccc1N(CC(=O)O)CC(=O)O [BAPTA]
EL-4 tumour cells
  immune cell killing: depleted

## COC(=O)C1=C(C)NC(C)=C([N+](=O)[O-])C1c1ccccc1C(F)(F)F (stereo not shown) [Bay K8644]
GLI1 [2]
  GLI1 mRNA levels: increased (almost two-fold)

## Cc1cccc(C)c1NC(=O)CN1CCCC1=O [Nefiracetam]
Gli1 [1]; vs carrier control (FIG. 2C)
  reduction of Gli1 expression: around 50%
